Laboratory results: patent publication US8906909B2 (Curis, Inc., priority 2009, dated 2014)

Assays:
[1] = tested on: HDACs (HeLa cell nuclear extracts); assay: HDAC enzymatic activity, Biomol Color de Lys system; type: biochemical
In short: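 IC50 from sigmoidal dose-response fits of fluorescence (Ex 350–380, Em 440–460 nm). Compounds in DMSO dilution series incubated 1 h at 25 °C with HeLa nuclear extract HDACs and colorimetric substrate, pH 8.0 Tris/Cl buffer with NaCl, KCl, MgCl2, before developer termination.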

| melting point | IC50 [1] | SMILES |
| --- | --- | --- |
| 127 to 130 °C | < 100 nM | CS(=O)(=O)N1CCN(Cc2cc3nc(-c4cccc5c4cnn5CCCCCCC(=O)NO)nc(N4CCOCC4)c3s2)CC1 [Compound 5, N-hydroxy-7-(4-(6-((4-(methylsulfonyl)piperazin-1-yl)methyl)-4-morpholinothieno[3,2-d]pyrimidin-2-yl)-1H-indazol-1-yl)heptanamide] |
| 146 to 169 °C | 100 to 1000 nM | CS(=O)(=O)N1CCN(Cc2cc3nc(-c4cccc5nn(CCCCC(=O)NO)cc45)nc(N4CCOCC4)c3s2)CC1 [Compound 7, N-hydroxy-5-(4-(6-((4-(methylsulfonyl)piperazin-1-yl)methyl)-4-morpholinothieno[3,2-d]pyrimidin-2-yl)-2H-indazol-2-yl)pentanamide] |
| 124 to 125 °C | < 100 nM | CS(=O)(=O)N1CCN(Cc2cc3nc(-c4cccc5nn(CCCCCC(=O)NO)cc45)nc(N4CCOCC4)c3s2)CC1 [Compound 8, N-hydroxy-6-(4-(6-((4-(methylsulfonyl)piperazin-1-yl)methyl)-4-morpholinothieno[3,2-d]pyrimidin-2-yl)-2H-indazol-2-yl)hexanamide] |
| 123 to 126 °C | < 100 nM | CS(=O)(=O)N1CCN(Cc2cc3nc(-c4cccc5nn(CCCCCCC(=O)NO)cc45)nc(N4CCOCC4)c3s2)CC1 [Compound 9, N-hydroxy-7-(4-(6-((4-(methylsulfonyl)piperazin-1-yl)methyl)-4-morpholinothieno[3,2-d]pyrimidin-2-yl)-2H-indazol-2-yl)heptanamide] |
| 123 to 124 °C | 100 to 1000 nM | O=C(CCCCCN1CCN(Cc2cc3nc(-c4cccc5[nH]ncc45)nc(N4CCOCC4)c3s2)CC1)NO [Compound 12, 6-(4-((2-(1H-indazol-4-yl)-4-morpholinothieno[3,2-d]pyrimidin-6-yl)methyl)piperazin-1-yl)-N-hydroxyhexanamide] |
| 119 to 122 °C | 100 to 1000 nM | O=C(CCCCCCN1CCN(Cc2cc3nc(-c4cccc5[nH]ncc45)nc(N4CCOCC4)c3s2)CC1)NO [Compound 13, 7-(4-((2-(1H-indazol-4-yl)-4-morpholinothieno[3,2-d]pyrimidin-6-yl)methyl)piperazin-1-yl)-N-hydroxyheptanamide] |
| 209 to 221 °C | < 100 nM | O=C(NO)c1cnc(N2CCN(Cc3cc4nc(-c5cccc6[nH]ncc56)nc(N5CCOCC5)c4s3)CC2)nc1 [Compound 14, 2-(4-((2-(1H-indazol-4-yl)-4-morpholinothieno[3,2-d]pyrimidin-6-yl)methyl)piperazin-1-yl)-N-hydroxypyrimidine-5-carboxamide] |
| 170 to 172 °C | < 100 nM | O=C(NO)c1cnc(N2CCC(CNCc3cc4nc(-c5cccc6[nH]ncc56)nc(N5CCOCC5)c4s3)CC2)nc1 [Compound 15, 2-(4-(((2-(1H-indazol-4-yl)-4-morpholinothieno[3,2-d]pyrimidin-6-yl)methylamino)methyl)piperidin-1-yl)-N-hydroxypyrimidine-5-carboxamide] |
| 174 to 175 °C | 100 to 1000 nM | CN(Cc1cc2nc(-c3cccc4[nH]ncc34)nc(N3CCOCC3)c2s1)CC1CCN(c2ncc(C(=O)NO)cn2)CC1 [Compound 16, 2-(4-((((2-(1H-indazol-4-yl)-4-morpholinothieno[3,2-d]pyrimidin-6-yl)methyl)(methyl)amino)methyl)piperidin-1-yl)-N-hydroxypyrimidine-5-carboxamide] |
| 142 to 145 °C | 100 to 1000 nM | CS(=O)(=O)N1CCN(Cc2cc3nc(-c4cccc5[nH]ncc45)nc(N4CCN(CCCCC(=O)NO)CC4)c3s2)CC1 [Compound 30, 5-(4-(2-(1H-indazol-4-yl)-6-((4-(methylsulfonyl)piperazin-1-yl)methyl)thieno[3,2-d]pyrimidin-4-yl)piperazin-1-yl)-N-hydroxypentanamide] |
| 140 to 145 °C | 100 to 1000 nM | CS(=O)(=O)N1CCN(Cc2cc3nc(-c4cccc5[nH]ncc45)nc(N4CCN(CCCCCC(=O)NO)CC4)c3s2)CC1 [Compound 31, 6-(4-(2-(1H-indazol-4-yl)-6-((4-(methylsulfonyl)piperazin-1-yl)methyl)thieno[3,2-d]pyrimidin-4-yl)piperazin-1-yl)-N-hydroxyhexanamide] |
| 131 to 134 °C | 100 to 1000 nM | CS(=O)(=O)N1CCN(Cc2cc3nc(-c4cccc5[nH]ncc45)nc(N4CCN(CCCCCCC(=O)NO)CC4)c3s2)CC1 [Compound 32, 7-(4-(2-(1H-indazol-4-yl)-6-((4-(methylsulfonyl)piperazin-1-yl)methyl)thieno[3,2-d]pyrimidin-4-yl)piperazin-1-yl)-N-hydroxyheptanamide] |
| 149 to 152 °C | < 100 nM | O=C(CCCNCc1cc2nc(-c3cccc4[nH]ncc34)nc(N3CCOCC3)c2s1)NO [Compound 41, 4-((2-(1H-indazol-4-yl)-4-morpholinothieno[3,2-d]pyrimidin-6-yl)methylamino)-N-hydroxybutanamide] |
| 145 to 147 °C | < 100 nM | O=C(CCCCNCc1cc2nc(-c3cccc4[nH]ncc34)nc(N3CCOCC3)c2s1)NO [Compound 42, 5-((2-(1H-indazol-4-yl)-4-morpholinothieno[3,2-d]pyrimidin-6-yl)methylamino)-N-hydroxypentanamide] |
| 128 to 130 °C | < 100 nM | O=C(CCCCCNCc1cc2nc(-c3cccc4[nH]ncc34)nc(N3CCOCC3)c2s1)NO [Compound 43, 6-((2-(1H-indazol-4-yl)-4-morpholinothieno[3,2-d]pyrimidin-6-yl)methylamino)-N-hydroxyhexanamide] |
| 188 to 190 °C | 100 to 1000 nM | O=C(CCCCCCNCc1cc2nc(-c3cccc4[nH]ncc34)nc(N3CCOCC3)c2s1)NO [Compound 44, 7-((2-(1H-indazol-4-yl)-4-morpholinothieno[3,2-d]pyrimidin-6-yl)methylamino)-N-hydroxyheptanamide] |
| 180 to 183 °C | < 100 nM | O=C(NO)c1ccc(NCc2cc3nc(-c4cccc5[nH]ncc45)nc(N4CCOCC4)c3s2)cc1 [Compound 78, 4-((2-(1H-indazol-4-yl)-4-morpholinothieno[3,2-d]pyrimidin-6-yl)methylamino)-N-hydroxybenzamide] |
| > 300 °C | 100 to 1000 nM | O=C(/C=C/c1ccc(NCc2cc3nc(-c4cccc5[nH]ncc45)nc(N4CCOCC4)c3s2)cc1)NO [Compound 80, (E)-3-(4-((2-(1H-indazol-4-yl)-4-morpholinothieno[3,2-d]pyrimidin-6-yl)methylamino)phenyl)-N-hydroxyacrylamide] |
| 188 to 190 °C | 1000 to 10000 nM | CN(Cc1cc2nc(-c3cccc4[nH]ncc34)nc(N3CCOCC3)c2s1)c1ccc(/C=C/C(=O)NO)cc1 [Compound 81, (E)-3-(4-(((2-(1H-indazol-4-yl)-4-morpholinothieno[3,2-d]pyrimidin-6-yl)methyl)(methyl)amino)phenyl)-N-hydroxyacrylamide] |
| 178 to 180 °C |  | CC(=O)NCc1ccc(-c2nc(N3CCOCC3)c3sc(CN(C)c4ncc(C(=O)NO)cn4)cc3n2)cc1 [Compound 136, 2-(((2-(4-(acetamidomethyl)phenyl)-4-morpholinothieno[3,2-d]pyrimidin-6-yl)methyl)(methyl)amino)-N-hydroxypyrimidine-5-carboxamide] |
